Counter-ions that a name gives are not always drawn. Like-named read-outs stand apart in the source and are kept apart here.

Common to all, as to test: AK assay 384-well format, Prestwick library screening
The test system of test [1] is E. faecium. The class given is cell-based, Enterococcus faecium. The settings on record: 50 μM final drug concentration; for fold induction at 50 µM: Enterococcus faecium, 3 h.
For test [2], the system named is S. aureus strain USA300-0114. The class given is cell-based, Staphylococcus aureus. The conditions noted are these: 50 μM final drug concentration; for fold induction at 50 µM: Staphylococcus aureus, USA300, 3 h.
The subject of test [3] is K. pneumoniae. In kind it is cell-based, Klebsiella pneumoniae. The conditions noted are these: 50 μM final drug concentration; for fold induction at 50 µM: Klebsiella pneumoniae, 3 h.
Test [4] relates to A. baumannii strain 98-37-09. The class given is cell-based, Acinetobacter baumannii. The settings on record: 50 μM final drug concentration; for fold induction at 50 µM: Acinetobacter baumannii, 983709, 3 h.
Test [5] has as its system P. aeruginosa. In kind it is cell-based, Pseudomonas aeruginosa. The settings on record: 50 μM final drug concentration; for fold induction at 50 µM: Pseudomonas aeruginosa, 3 h.
The subject of test [6] is E. cloacae. In kind it is cell-based, Enterobacter cloacae. The conditions noted are these: 50 μM final drug concentration; for fold induction at 50 µM: Enterobacter cloacae, 3 h.
The subject of test [7] is E. coli. In kind it is cell-based, Escherichia coli. The conditions noted are these: 50 μM final drug concentration; for fold induction at 50 µM: Escherichia coli, 3 h.
Where [8] appears, read: planktonic E. faecium, 384-well, cutoff for positive-scoring molecules 3-fold increase, read-out: AK-based Prestwick Library Screening Results: E. faecium (increase in extracellular AK activity).
Setting [9] is: planktonic S. aureus, 384-well, cutoff for positive-scoring molecules 3-fold increase, read-out: AK-based Prestwick Library Screening Results: S. aureus (increase in extracellular AK activity).
Where [10] appears, read: planktonic K. pneumoniae, 384-well, cutoff for positive-scoring molecules 3-fold increase, read-out: AK-based Prestwick Library Screening Results: K. pneumoniae (increase in extracellular AK activity).
[11] abbreviates: planktonic A. baumannii, 384-well, cutoff for positive-scoring molecules 3-fold increase, read-out: AK-based Prestwick Library Screening Results: A. baumannii (increase in extracellular AK activity).
Where [12] appears, read: planktonic P. aeruginosa, 384-well, cutoff for positive-scoring molecules 3-fold increase, read-out: AK-based Prestwick Library Screening Results: P. aeruginosa (increase in extracellular AK activity).
[13] abbreviates: planktonic E. cloacae, 384-well, cutoff for positive-scoring molecules 3-fold increase, read-out: AK-based Prestwick Library Screening Results: E. cloacae (increase in extracellular AK activity).
Where [14] appears, read: planktonic E. coli, 384-well, cutoff for positive-scoring molecules 3-fold increase, read-out: AK-based Prestwick Library Screening Results: E. coli (increase in extracellular AK activity).
Setting [15] is: planktonic, cutoff for positive 3-fold increase.

As for `CN1C[C@H](CO)C=C2c3cccc4[nH]cc(c34)C[C@H]21` [Lysergol], the “AK-based Prestwick Library Screening Results, E. faecium (fold increase in extracellular AK activity)” value in test [1] (planktonic, […]) is recorded as 0.9. Further, the “AK-based Prestwick Library Screening Results, S. aureus (fold increase in extracellular AK activity)” value in test [2] (planktonic, […]) came to 0.9. In addition, the “AK-based Prestwick Library Screening Results, K. pneumoniae (fold increase in extracellular AK activity)” value in test [3] (planktonic, […]) came out at 0.8. Moreover, in test [4] (planktonic, […]), the “AK-based Prestwick Library Screening Results, A. baumannii (fold increase in extracellular AK activity)” value came to 1.0. The “AK-based Prestwick Library Screening Results, P. aeruginosa (fold increase in extracellular AK activity)” value in test [5] (planktonic, […]) is 1.1. Moreover, in test [6] (planktonic, […]), the “AK-based Prestwick Library Screening Results, E. cloacae (fold increase in extracellular AK activity)” value was 1.6. Moreover, the “AK-based Prestwick Library Screening Results, E. coli (fold increase in extracellular AK activity)” value in test [7] (planktonic, […]) is given as 1.1.
In the case of `NCc1ccc(S(N)(=O)=O)cc1` [Mafenide hydrochloride], the fold induction at 50 µM in test [1] (384-well format, cutoff for positive-scoring molecules 3-fold increase, read-out: AK-based Prestwick Library Screening Results, E. faecium (increase in extracellular AK activity)) came out at 1.2; in test [2] (384-well format, cutoff for positive-scoring molecules 3-fold increase, read-out: AK-based Prestwick Library Screening Results, S. aureus (increase in extracellular AK activity)), 0.6; in test [3] (384-well format, cutoff for positive-scoring molecules 3-fold increase, read-out: AK-based Prestwick Library Screening Results, K. pneumoniae (increase in extracellular AK activity)) it was 0.5; in test [4] (384-well format, cutoff for positive-scoring molecules 3-fold increase, read-out: AK-based Prestwick Library Screening Results, A. baumannii (increase in extracellular AK activity)), 0.5; in test [5] (384-well format, cutoff for positive-scoring molecules 3-fold increase, read-out: AK-based Prestwick Library Screening Results, P. aeruginosa (increase in extracellular AK activity)), 0.5; in test [6] (384-well format, cutoff for positive-scoring molecules 3-fold increase, read-out: AK-based Prestwick Library Screening Results, E. cloacae (increase in extracellular AK activity)), 0.6. For the same compound, in test [7] (384-well format, cutoff for positive-scoring molecules 3-fold increase, read-out: AK-based Prestwick Library Screening Results, E. coli (increase in extracellular AK activity)), the fold induction at 50 µM was 0.6.
For `CNCCCC12CCC(c3ccccc31)c1ccccc12` [Maprotiline hydrochloride], the fold induction at 50 µM in test [1] (planktonic E. faecium, cutoff for positive-scoring molecules 3-fold increase, read-out: AK-based Prestwick Library Screening Results, E. faecium (increase in extracellular AK activity)) came to 0.8; in test [2] (planktonic S. aureus, cutoff for positive-scoring molecules 3-fold increase, read-out: AK-based Prestwick Library Screening Results, S. aureus (increase in extracellular AK activity)) it was 1.1; in test [3] (planktonic K. pneumoniae, cutoff for positive-scoring molecules 3-fold increase, read-out: AK-based Prestwick Library Screening Results, K. pneumoniae (increase in extracellular AK activity)), 0.6; in test [4] (planktonic A. baumannii, cutoff for positive-scoring molecules 3-fold increase, read-out: AK-based Prestwick Library Screening Results, A. baumannii (increase in extracellular AK activity)), 0.8; in test [5] (planktonic P. aeruginosa, cutoff for positive-scoring molecules 3-fold increase, read-out: AK-based Prestwick Library Screening Results, P. aeruginosa (increase in extracellular AK activity)), 0.9; in test [6] (planktonic E. cloacae, cutoff for positive-scoring molecules 3-fold increase, read-out: AK-based Prestwick Library Screening Results, E. cloacae (increase in extracellular AK activity)), 0.9. Also, the fold induction at 50 µM in test [7] (planktonic E. coli, cutoff for positive-scoring molecules 3-fold increase, read-out: AK-based Prestwick Library Screening Results, E. coli (increase in extracellular AK activity)) turned out to be 0.8.
As to `COC(=O)Nc1nc2ccc(C(=O)c3ccccc3)cc2[nH]1` [Mebendazole], the fold induction at 50 µM in test [1] (setting [8]) amounted to 0.9; in test [2] (setting [9]) it was 0.9; in test [3] (setting [10]) it was 0.8; in test [4] (setting [11]), 0.7; in test [5] (setting [12]), 0.8; in test [6] (setting [13]), 1.2. The fold induction at 50 µM in test [7] (setting [14]) came out at 0.8.
With `CCN(CCCCOC(=O)c1ccc(OC)c(OC)c1)C(C)Cc1ccc(OC)cc1` (stereo not drawn) [Mebeverine hydrochloride], the fold induction at 50 µM is 1 in test [1] (setting [8]); 1.1 in test [2] (setting [9]); 1 in test [3] (setting [10]); 1.4 in test [4] (setting [11]); 1.1 in test [5] (setting [12]); 1.3 in test [6] (setting [13]). Besides, the fold induction at 50 µM in test [7] (setting [14]) worked out at 1.3.
For the compound `CN1CCc2c(c3ccccc3n2Cc2ccccc2)C1.O=S(=O)(O)c1cccc2c(S(=O)(=O)O)cccc12` [Mebhydroline 1,5-naphtalenedisulfonate], the “AK-based Prestwick Library Screening Results, E. faecium (fold increase in extracellular AK activity)” value in test [1] (setting [15]) is recorded as 1.0. Besides, the “AK-based Prestwick Library Screening Results, S. aureus (fold increase in extracellular AK activity)” value in test [2] (setting [15]) is 0.9. In addition, the “AK-based Prestwick Library Screening Results, K. pneumoniae (fold increase in extracellular AK activity)” value in test [3] (setting [15]) is 0.8. Besides, in test [4] (setting [15]), the “AK-based Prestwick Library Screening Results, A. baumannii (fold increase in extracellular AK activity)” value was 0.9. In test [5] (setting [15]), the “AK-based Prestwick Library Screening Results, P. aeruginosa (fold increase in extracellular AK activity)” value is listed as 1.1. For the same compound, the “AK-based Prestwick Library Screening Results, E. cloacae (fold increase in extracellular AK activity)” value in test [6] (setting [15]) turned out to be 1.5. Moreover, the “AK-based Prestwick Library Screening Results, E. coli (fold increase in extracellular AK activity)” value in test [7] (setting [15]) is 1.1.
`CNC1(C)C2CCC(C2)C1(C)C` (stereo not drawn) [Mecamylamine hydrochloride]: the fold induction at 50 µM in test [1] (planktonic E. faecium, positive cutoff 3-fold increase, read-out: AK-based Prestwick library screening result, E. faecium (fold increase in extracellular AK activity)) turned out to be 1.1; in test [2] (planktonic S. aureus, positive cutoff 3-fold increase, read-out: AK-based Prestwick library screening result, S. aureus (fold increase in extracellular AK activity)), 1.4; in test [3] (planktonic K. pneumoniae, positive cutoff 3-fold increase, read-out: AK-based Prestwick library screening result, K. pneumoniae (fold increase in extracellular AK activity)), 1; in test [4] (planktonic A. baumannii, positive cutoff 3-fold increase, read-out: AK-based Prestwick library screening result, A. baumannii (fold increase in extracellular AK activity)), 1.2; in test [5] (planktonic P. aeruginosa, positive cutoff 3-fold increase, read-out: AK-based Prestwick library screening result, P. aeruginosa (fold increase in extracellular AK activity)) it was 1.1; in test [6] (planktonic E. cloacae, positive cutoff 3-fold increase, read-out: AK-based Prestwick library screening result, E. cloacae (fold increase in extracellular AK activity)), 1.6. In addition, in test [7] (planktonic E. coli, positive cutoff 3-fold increase, read-out: AK-based Prestwick library screening result, E. coli (fold increase in extracellular AK activity)), the fold induction at 50 µM was determined as 1.4.
`C=C1c2c(Cl)ccc(O)c2C(=O)C2=C(O)[C@]3(O)C(=O)C(C(N)=O)=C(O)[C@@H](N(C)C)[C@@H]3[C@@H](O)[C@H]12.O=C(O)c1cc(S(=O)(=O)O)ccc1O` [Meclocycline sulfosalicylate]: in test [1] (setting [15]), the “AK-based Prestwick Library Screening Results, E. faecium (fold increase in extracellular AK activity)” value is 1.0. Also, in test [2] (setting [15]), the “AK-based Prestwick Library Screening Results, S. aureus (fold increase in extracellular AK activity)” value amounted to 4.3. The “AK-based Prestwick Library Screening Results, K. pneumoniae (fold increase in extracellular AK activity)” value in test [3] (setting [15]) is listed as 0.3. Further, in test [4] (setting [15]), the “AK-based Prestwick Library Screening Results, A. baumannii (fold increase in extracellular AK activity)” value is on record as 3.2. For the same compound, the “AK-based Prestwick Library Screening Results, P. aeruginosa (fold increase in extracellular AK activity)” value in test [5] (setting [15]) is 0.5. Besides, the “AK-based Prestwick Library Screening Results, E. cloacae (fold increase in extracellular AK activity)” value in test [6] (setting [15]) was 2.1. Besides, the “AK-based Prestwick Library Screening Results, E. coli (fold increase in extracellular AK activity)” value in test [7] (setting [15]) is 0.8.
As for `CN(C)CCOC(=O)COc1ccc(Cl)cc1` [Meclofenoxate hydrochloride], the fold induction at 50 µM in test [1] (planktonic, […], read-out: AK-based Prestwick Library Screening Results, E. faecium (fold increase in extracellular AK activity)) was determined as 1; in test [2] (planktonic, […], read-out: AK-based Prestwick Library Screening Results, S. aureus (fold increase in extracellular AK activity)) it was 1.2; in test [3] (planktonic, […], read-out: AK-based Prestwick Library Screening Results, K. pneumoniae (fold increase in extracellular AK activity)), 1; in test [4] (planktonic, […], read-out: AK-based Prestwick Library Screening Results, A. baumannii (fold increase in extracellular AK activity)) it was 1; in test [5] (planktonic, […], read-out: AK-based Prestwick Library Screening Results, P. aeruginosa (fold increase in extracellular AK activity)), 1.1; in test [6] (planktonic, […], read-out: AK-based Prestwick Library Screening Results, E. cloacae (fold increase in extracellular AK activity)), 1.4. Further, in test [7] (planktonic, […], read-out: AK-based Prestwick Library Screening Results, E. coli (fold increase in extracellular AK activity)), the fold induction at 50 µM stood at 1.2.
